Reference: US6703373B1, “Indolopyrrolocarbazole derivatives and antitumor agents” (Banyu Pharmaceutical Co., Ltd., priority 2002, dated 2004)

Key:
[1] = test system: human lung cancer cells (PC-13); assay: Growth inhibition activity on human lung cancer cells (PC-13); assay type: cell-based; conditions: PC-13 cells, 72 h with compound, Sulforhodamine B, absorbance 560 nm; read-out: 50% inhibition concentration (IC50, nM) PC-13
Procedure: (§1) Growth Inhibition Activity on Human Gastric Cancer Cells, Human Colon Cancer Cells and Human Lung Cancer Cells
(§2) 100 μl of a medium containing a test compound was added, and culture was continued at 37° C. for further 72 hours under 5% CO2. After completion of the culture, 50 μl of 50% trichloroacetic acid was added to the cultured medium, and the mixtures were held at 4° C. for 60 minutes to fix the cells. The cultured medium containing trichloroacetic acid was removed, and the wells were washed with tap water and dried. 50 μl of 0.4% Sulforhodamine B solution was added, and the mixtures were held at room temperature for 30 minutes to dye the cells. The dyeing solutions were removed, and the remaining dyeing solutions were washed away with 1% acetic acid. After complete removal of the acetic acid solution and drying, 200 μl of […] Tris solution was added and the mixtures were mixed well at room temperature for 1 hour or more to extract the dye. Absorbance of each well at 560 nm was measured, and the inhibition proportion in comparison with the group of no addition of any drug was calculated.

Human breast cancer MX-1 = assay: Antitumor effect on human breast cancer (MX-1) solid tumor implanted in mice; assay type: in vivo, mouse; conditions: total dose to inhibit tumor growth by 75%; s.c. implanted tumor in mice, tail vein injection, 5/w×2 or 2/w×2, measured 28 after start
Procedure: (§3) Antitumor Effect on Human Gastric Cancer (MKN-45), Human Breast Cancer (MX-1) and Human Colon Cancer (LS180)
(§4) A MKN-45, MX-1 or LS180 solid tumor previously subcutaneously implanted in a nude mouse and grown was thinly cut, and its cubes with each side 3 mm were subcutaneously implanted in test mice. After the implantation, starting from the time when the tumor grew into 0.3 cm^3 or more, various dosages of a test compound were injected once a day for 5 consecutive days into the tail veins of the mice. The same injections were then made for further 5 days after 2 days of interval (treatment schedule: 5/w×2) or once every 3-4 days, four times in total (treatment schedule: 2/w×2). 28 after the start of the treatment, the length (L) and the breadth (W) of each of the tumors were measured, and its volume (V) was calculated (V=½×L×W^2).

[2] = test system: mouse leukemia cells (P388); assay: Growth inhibition activity on mouse leukemia cells (P388); assay type: cell-based; conditions: 24 h with compound, Thiazoyl Blue, absorbance 550 nm, read-out: 50% inhibition concentration (IC50, nM) P-388
Procedure: Growth Inhibition Activity on Mouse Leukemia Cells
10 μl of a medium containing a test compound was added, and culture was continued at 37° C. for further 24 hours under 5% CO2. 10 μl of 0.5% Thiazoyl Blue was added to the cultured medium, and incubation was made at 37° C. for 2 hours under 5% CO2 to carry out enzymatic reaction. 20% sodium dodecyl sulfate (SDS) was added to discontinue the reaction, and incubation was carried out at 37° C. for further 4 hours to dissolve the resulting dye, and absorbance at 550 nm was measured and compared with the control group.

[3] = test system: human colon cancer cells (DLD-1); assay: Growth inhibition activity on human colon cancer cells (DLD-1); assay type: cell-based; conditions: DLD-1 cells, 72 h with compound, Sulforhodamine B, absorbance 560 nm; read-out: 50% inhibition concentration (IC50, nM) DLD-1
Procedure: as §1, §2

[4] = test system: human gastric cancer cells (MKN-45); assay: Growth inhibition activity on human gastric cancer cells (MKN-45); assay type: cell-based; conditions: MKN-45 cells, 72 h with compound, Sulforhodamine B, absorbance 560 nm; read-out: 50% inhibition concentration (IC50, nM) MKN-45
Procedure: as §1, §2

[5] = test system: Human gastric cancer MKN-45; assay: Antitumor effect on human gastric cancer (MKN-45) solid tumor implanted in mice; assay type: in vivo, mouse; conditions: total dose to inhibit tumor growth by 75%; s.c. implanted tumor in mice, tail vein injection, 5/w×2 or 2/w×2, measured 28 after start
Procedure: as §3, §4

Human colon cancer LS180 = assay: Antitumor effect on human colon cancer (LS180) solid tumor implanted in mice; assay type: in vivo, mouse; conditions: total dose to inhibit tumor growth by 75%; s.c. implanted tumor in mice, tail vein injection, 5/w×2 or 2/w×2, measured 28 after start
Procedure: as §3, §4

| SMILES | IC50 [1] | GID75 (mg/m^2 total) Human breast cancer MX-1 (Human breast cancer MX-1) | IC50 [2] | IC50 [3] | IC50 [4] | GID75 (mg/m^2 total) Human gastric cancer MKN-45 [5] | GID75 (mg/m^2 total) Human colic cancer LS180 (Human colon cancer LS180) |
| --- | --- | --- | --- | --- | --- | --- | --- |
| O=C1c2c(c3c4ccc(O)cc4n([C@@H]4O[C@H](CO)[C@@H](O)[C@H](O)[C@H]4O)c3c3[nH]c4cc(O)ccc4c23)C(=O)N1NCc1sccc1CO [Example 19] | 0.5 nM | <30 mg/m^2 | 0.19 nM | 1.3 nM | 0.92 nM | – | – |
| O=C1c2c(c3c4ccc(O)cc4n([C@@H]4O[C@H](CO)[C@@H](O)[C@H](O)[C@H]4O)c3c3[nH]c4cc(O)ccc4c23)C(=O)N1NCc1ccncc1 [Example 24] | 0.27 nM | 27 mg/m^2 | 0.48 nM | 3.3 nM | 0.71 nM | 12 mg/m^2 | 114 mg/m^2 |
| O=C1c2c(c3c4cccc(O)c4n(C4OC(CO)C(O)C(O)C4O)c3c3[nH]c4c(O)cccc4c23)C(=O)N1NCc1cccc(O)c1 (stereo not drawn) [Control compound 2, reference compound] | 48 nM | – | 6.5 nM | 76 nM | 12 nM | – | – |
| O=C1c2c(c3c4ccc(O)cc4n([C@@H]4O[C@H](CO)[C@@H](O)[C@H](O)[C@H]4O)c3c3[nH]c4cc(O)ccc4c23)C(=O)N1NCc1ccc(CO)o1 [Example 22] | 0.58 nM | – | 0.63 nM | 1 nM | 1.8 nM | – | – |
| O=C1c2c(c3c4ccc(O)cc4n([C@@H]4O[C@H](CO)[C@@H](O)[C@H](O)[C@H]4O)c3c3[nH]c4cc(O)ccc4c23)C(=O)N1NCc1cscc1CO [Example 20] | 0.67 nM | <30 mg/m^2 | 0.87 nM | 1 nM | 0.92 nM | – | – |
| O=C1c2c(c3c4ccc(O)cc4n([C@@H]4O[C@H](CO)[C@@H](O)[C@H](O)[C@H]4O)c3c3[nH]c4cc(O)ccc4c23)C(=O)N1NCc1csc(CO)c1 [Example 23] | 2.3 nM | 19 mg/m^2 | 0.48 nM | 8.9 nM | 1.5 nM | – | – |
| O=C1c2c(c3c4ccc(O)cc4n(C4OC(CO)C(O)C(O)C4O)c3c3[nH]c4cc(O)ccc4c23)C(=O)N1NCc1cccc(O)c1 (stereo not drawn) [Control compound, reference compound] | – | 97 mg/m^2 | – | – | – | 370 mg/m^2 | 1900 mg/m^2 |
| O=C1c2c(c3c4ccc(O)cc4n([C@@H]4O[C@H](CO)[C@@H](O)[C@H](O)[C@H]4O)c3c3[nH]c4cc(O)ccc4c23)C(=O)N1NCc1sc(CO)cc1CO [Example 16] | 0.56 nM | <36 mg/m^2 | 0.4 nM | 4 nM | 1.3 nM | – | – |
| O=C1c2c(c3c4ccc(O)cc4n([C@@H]4O[C@H](CO)[C@@H](O)[C@H](O)[C@H]4O)c3c3[nH]c4cc(O)ccc4c23)C(=O)N1NCc1ccsc1CO [Example 18] | 0.3 nM | 16 mg/m^2 | 0.43 nM | 4.6 nM | 0.66 nM | – | – |
| O=C1c2c(c3c4ccc(O)cc4n([C@@H]4O[C@H](CO)[C@@H](O)[C@H](O)[C@H]4O)c3c3[nH]c4cc(O)ccc4c23)C(=O)N1NCc1cccc(CO)n1 [Example 15] | 0.62 nM | <6 mg/m^2 | 0.5 nM | 4.3 nM | 2.1 nM | <90 mg/m^2 | 400 mg/m^2 |
| O=C1c2c(c3c4ccc(O)cc4n([C@@H]4O[C@H](CO)[C@@H](O)[C@H](O)[C@H]4O)c3c3[nH]c4cc(O)ccc4c23)C(=O)N1NCc1ccncc1CO [Example 3] | 0.22 nM | <12 mg/m^2 | 0.28 nM | 0.91 nM | 0.35 nM | <30 mg/m^2 | 48 mg/m^2 |
